# Reference: US7470715B2, “Estrogen modulators” (Pfizer Inc., priority 2005, dated 2008)
# What was measured:
# [1] = molecular target: T1, ligand binding domain of the estrogen receptor alpha chain (ERαLBD) (Homo sapiens, UniProt P03372); test: ER agonist cell assay (ERα), Huh-7 co-transfection, luciferase; type: cell-based; conditions: for EC50: Huh-7 cells co-transfected with pG5luc and ERαLBD, overnight incubation, luciferase; for ERα % of Max E2 Response: percent of the maximum estradiol fold change, Huh-7, pG5luc and ERαLBD
# T1 construct: expressed in transfected cells; host or cells: Huh-7 human hepatoma cells, transient transfection with FuGENE 6
# T1 sequence (P03372 311-547 limits assumed): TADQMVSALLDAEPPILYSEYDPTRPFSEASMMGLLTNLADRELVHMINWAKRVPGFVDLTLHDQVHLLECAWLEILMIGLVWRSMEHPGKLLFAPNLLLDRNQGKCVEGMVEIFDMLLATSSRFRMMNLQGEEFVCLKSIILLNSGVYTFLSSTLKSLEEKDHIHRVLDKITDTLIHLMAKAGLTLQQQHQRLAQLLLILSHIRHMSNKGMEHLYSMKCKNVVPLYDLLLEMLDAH
# Experimental: (§1) The compounds ability to mimic the effects of estrogen on the estrogen receptor were determined in a whole cell assay as described immediately below.
# (§2) Experimental Procedure for ER Agonist Cell Assay
# (§3) • Cell line and plasmids: The human hepatoma cell line Huh-7 was used for co-transfections. Cells were maintained in culture medium and split when they reached 80-90% confluency. Three plasmids were routinely used in the assay. pG5luc contained the firefly luciferase gene and was obtained from Promega. […] Cell Culture Media and Reagents:
# (§4) Culture medium: DMEM (phenol red free), 10% charcoal treated HyClone serum, 1% L-glutamine, and 1% penicillin/streptomycin
# (§5) Transfection medium: DMEM (phenol red free) and 10% charcoal treated HyClone serum
# (§6) Luciferase reagents: Dual-Glo Luciferase Kit (Promega cat #E2980) was used for determination of luciferase activity.
# (§7) Transient transfections were preformed using the lipophilic reagent FuGENE 6 (Roche). Cells were split and seeded at 7.2×10^6/150 cm^2 flask in 20 mL of transfection medium. 5-6 hrs later cells were co-transfected with either pG5luc and ERαLBD or pG5luc and ERβLBD(pm418). Transfected cells grew overnight and were then used the next day.
# (§8) Cells transfected 24 hrs earlier were harvested, counted, and seeded in wells containing compound at a density of 1×10^4 cells/well. […] Cells were incubated overnight at 37° C. and 5% CO2 in the presence of compound. The following day medium was aspirated from the wells and 100 ul of Dual-Glo™ Luciferase Reagent were added to each well. Plates were incubated at room temperature for 20 minutes and firefly luminescence was measured on a luminometer. Next, 50 ul of Dual-Gbo™ Stop & Glo® Reagent were added to each well and after 20 minutes at room temperature the Renilla luminescence was measured on a luminometer. Values from each well were normalized by dividing the firefly luminescence by the Renilla luminescence. Estradiol was used as the standard and run in each assay. The fold induction over background for each compound was compared to the maximum fold induction for estradiol in each assay. […] Those compounds that were not tested, or the data was unavailable are marked as NT.
# [2] = molecular target: ligand binding domain of the estrogen receptor beta chain (ERβLBD) that contained a point mutation at amino acid residue 418 (pm418) (Homo sapiens, UniProt Q92731); test: ER agonist cell assay (ERβ), Huh-7 co-transfection, luciferase; type: cell-based; conditions: for EC50: Huh-7 cells co-transfected with pG5luc and ERβLBD(pm418), overnight incubation, luciferase; for ERβ % of Max E2 Response: percent of the maximum estradiol fold change, Huh-7, pG5luc and ERβLBD(pm418)
# Experimental: as §1, §2, §3, §4, §5, §6, §7, §8
EC50 [1] [nM],ERα % of Max E2 Response [1] [%],EC50 [2] [nM],ERβ % of Max E2 Response [2] [%],Compound
43,45.4,136,17.7,"Oc1ccc(-c2noc(C3(C(O)C4CC4)CC3)c2-c2ccccc2)cc1 (racemic) [Example 14, (±)-4-{5-[1-(Cyclopropyl-hydroxy-methyl)-cyclopropyl]-4-phenyl-isoxazol-3-yl}-phenol]"
44.3,63.2,–,2.37,"Oc1ccc(-c2noc(C3(C(O)c4ccccc4)CC3)c2-c2ccccc2)cc1 (racemic) [Example 16, (±)-4-{5-[1-(Hydroxy-phenyl-methyl)-cyclopropyl]-4-phenyl-isoxazol-3-yl}-phenol]"
34.4,56.8,126,3.82,"CC(C)C(O)C1(c2onc(-c3ccc(O)cc3)c2-c2ccccc2)CC1 (racemic) [Example 17, (±)-4-{5-[1-(1-Hydroxy-2-methyl-propyl)-cyclopropyl]-4-phenyl-isoxazol-3-yl}-phenol]"
12.6,30.9,> 10000,>0.860,"CC(C)C(C)NCC1(c2onc(-c3ccc(O)cc3)c2-c2ccccc2)CC1 (racemic) [Example 24, (±)-4-(5-{1-[(1,2-Dimethyl-propylamino)-methyl]-cyclopropyl}-4-phenyl-isoxazol-3-yl)-phenol]"
97.1,32.2,568,1.32,"CC(C)OCC1(c2onc(-c3ccc(O)cc3)c2-c2ccccc2)CC1 [Example 3, 4-[5-(1-Isopropoxymethyl-cyclopropyl)-4-phenyl-isoxazol-3-yl]-phenol]"
208,17.2,> 10000,>0.485,"COc1cccc(F)c1OCC1(c2onc(-c3ccc(O)cc3)c2-c2ccccc2)CC1 [Example 7, 4-{5-[1-(2-Fluoro-6-methoxy-phenoxymethyl)-cyclopropyl]-4-phenyl-isoxazol-3-yl}-phenol]"
25.8,40.4,68.8,3.65,"COCC1(c2onc(-c3ccc(O)cc3)c2-c2ccccc2)CC1 [Example 8, 4-[5-(1-Methoxymethyl-cyclopropyl)-4-phenyl-isoxazol-3-yl]-phenol]"
17.7,15.1,197,1.18,"COCOCC1(c2onc(-c3ccc(O)cc3)c2-c2ccccc2)CC1 [Example 10, 4-[5-(1-Methoxymethoxymethyl-cyclopropyl)-4-phenyl-isoxazol-3-yl]-phenol]"
171,23.4,14.7,1.98,"Oc1ccc(-c2noc(C3(COCC(F)(F)F)CC3)c2-c2ccccc2)cc1 [Example 11, 4-{4-Phenyl-5-[1-(2,2,2-trifluoro-ethoxymethyl)-cyclopropyl]-isoxazol-3-yl}-phenol]"
354,26.2,–,0.577,"Cc1ncccc1OCC1(c2onc(-c3ccc(O)cc3)c2-c2ccccc2)CC1 [Example 12, 4-{5-[1-(2-Methyl-pyridin-3-yloxymethyl)-cyclopropyl]-4-phenyl-isoxazol-3-yl}-phenol]"
–,19,–,0.552,"COc1ncccc1OCC1(c2onc(-c3ccc(O)cc3)c2-c2ccccc2)CC1 [Example 13, 4-{5-[1-(2-Methoxy-pyridin-3-yloxymethyl)-cyclopropyl]-4-phenyl-isoxazol-3-yl}-phenol]"
66,20.9,–,1.03,"CC[C@@H](NCC1(c2onc(-c3ccc(O)cc3)c2-c2ccccc2)CC1)c1ccccc1 [Example 26, 4-[4-Phenyl-5-(1-{[(1R)-1-phenyl-propylamino]-methyl}-cyclopropyl)-isoxazol-3-yl]-phenol]"
